# Reference: US20250320227A1, “MACROCYCLIC OREXIN RECEPTOR AGONISTS AND USES THEREOF” (Jazz Pharmaceuticals Ireland Limited, priority 2022, published 2025)
# Molecular target: T1, human recombinant OX2 (hOX2) receptors expressed in CHO cells (Homo sapiens, UniProt O43614)
# T1 construct: host or cells: CHO cells (hOX2-CHO)
# T1 sequence (O43614 1-444): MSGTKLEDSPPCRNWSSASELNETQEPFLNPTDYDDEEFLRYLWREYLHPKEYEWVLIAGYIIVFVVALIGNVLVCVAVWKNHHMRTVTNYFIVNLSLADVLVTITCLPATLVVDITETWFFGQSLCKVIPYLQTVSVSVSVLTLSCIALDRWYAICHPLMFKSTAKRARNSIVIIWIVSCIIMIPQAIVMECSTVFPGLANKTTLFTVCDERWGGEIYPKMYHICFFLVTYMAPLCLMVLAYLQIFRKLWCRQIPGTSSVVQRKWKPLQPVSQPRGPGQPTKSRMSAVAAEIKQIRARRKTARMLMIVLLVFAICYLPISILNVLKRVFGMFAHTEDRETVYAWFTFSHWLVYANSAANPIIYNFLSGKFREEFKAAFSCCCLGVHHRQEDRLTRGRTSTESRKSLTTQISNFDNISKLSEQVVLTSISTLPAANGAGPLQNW
# Assay: IP-1 accumulation assay (IP-One HTRF) in hOX2-CHO cells
# Assay type: cell-based
# Conditions: 60 min incubation at 37° C., mean of at least two independent experiments, read-out: EC50_OX2R Category
# Experimental: The accumulation of Inositol-1 Monophosphate (IP-1) was measured using IP-One HTRF® Terbium cryptate based assay (Cisbio) in human recombinant OX1 (hOX1) and at OX2 (hOX2) receptors expressed in CHO cells (DiscoverX) according to the manufacturer's instructions for cells tested in suspension.
# hOX1-CHO and hOX2-CHO cells were seeded into white 384-well plates at a density of 20,000 cells/well in Hank's Balanced Salt Solution (HBSS) containing 20 mM HEPES pH 7.4, 50 mM, LiCl and 0.1% and Bovine Serum Albumin (BSA).
# Compounds of disclosure were tested in an 11 points concentration response curve (CRC) serially diluted in neat DMSO at 200 fold concentrations and added by Echo acoustic liquid handling (Labcyte) to the cells (0.5% DMSO final in the assay). After 60 min of incubation at 37° C. detection reagents, IP1-d2 tracer and anti-IP1-cryptate were diluted in lysis buffer according to the manufacturer's descriptions and added to the cells.
# Following 60 min incubation at room temperature, time-resolved fluorescence (HTRF) was measured at 615 nm and 665 nm by Envision Multilabel reader (Perkin Elmer) and the HTRF ratio (A665/A615×10^4) was calculated.
# The IP-1 accumulation response was expressed as percentage of the maximal OX-A response.
# Curve fitting and EC50 estimations were carried out using a four-parameter logistic model using XLfit Software. Mean data of EC50 are calculated from at least two independent experiments performed in duplicates
row,SMILES,EC50
1,"O=C1COCC2(CCN3C(=O)CCCOc4ccccc4[C@H]4CC[C@H](CC4)OCC32)N1 (mixture of isomers) [Example 2, rel-(1′s,3S, 17′R,20′s)-8′,19′-dioxa-13′-azaspiro[morpholine-3, 16′-tetracyclo [18.2.2.0^2,70.0^13,17]tetracosane]-2′(7′),3′,5′-triene-5,12′-dione]",1 to 10 µM
2,"O=C1COCC2(CCN3C(=O)COc4ccccc4[C@H]4CC[C@H](CC4)OCC32)N1 (mixture of isomers) [Example 3, rel-(1′s,3S, 15′R,18′s)-8′,17′-dioxa-11′-azaspiro[morpholine-3,14′-tetracyclo[16.2.2.0^2,70.0^11,15]docosane]-2′(7′),3′,5′-triene-5,10′-dione]",1 to 10 µM
3,"O=C1COCC2(CCN3C(=O)C4(CC4)COc4ccccc4[C@H]4CC[C@H](CC4)OCC32)N1 (mixture of isomers) [Example 7, Rel-(1′s, 15'S,16′R,19′s)-dispiro[cyclopropane-1,10′-[8,18]dioxa-[12]azatetracyclo[17.2.2.0^2,70.0^12,16]tricosane-15′,3″-morpholine]-2′(7′),3′,5′-triene-5″,11′-dione]",1 to 10 µM
4,"O=C1CCOc2ccccc2[C@H]2CC[C@H](CC2)OCC2N1CCC21COCCN1 (mixture of isomers) [Example 9, Rel-(1′s,3S,16′R,19′s)-8′,18′-dioxa-12′-azaspiro[morpholine-3,15′-tetracyclo[17.2.2.0^2,70.0^12,16]tricosane]-2′,4′,6′-trien-11′-one]",> 10 µM
5,C[C@@H]1CC2(COCC(=O)N2)C2Cc3cccc(c3F)-c3ccccc3CCCC(=O)N21 (mixture of isomers) [Example 28],1 to 10 µM
6,"C[C@@H]1CC2(COCC(=O)N2)C2Cc3cccc(c3F)-c3ccccc3CCCCC(=O)N21 (mixture of isomers) [Example 29, (14′R)-23′-fluoro-14′-methyl-13′-azaspiro[morpholine-3,16′tetracyclo-[17.3.1.0^2,70.0^13,17]tricosane]-1′(23′),2′(7′),3′,5′,19′,21′-hexaene-5,12′-dione]",> 10 µM
7,"C[C@@H]1CC2(COCC(=O)N2)C2Cc3cccc(c3F)-c3ccccc3OCCN(C)C(=O)N21 (mixture of isomers) [Example 30, (14′R)-23′-fluoro-11′,14′-dimethyl-8′-oxa-11′,13′-diazaspiro[morpholine-3,16′-tetracyclo[17.3.1.0^2,70.0^13,17]tricosane]-1′(23′),2′(7′),3′,5′,19′,21′-hexaene-5,12′-dione]",1 to 10 µM
8,"C[C@@H]1CC2(COCC(=O)N2)C2Cc3cccc(c3F)-c3ccccc3OCCCN(C)C(=O)N21 (mixture of isomers) [Example 31, (15′R)-24′-fluoro-12′, 15′-dimethyl-8′-oxa-12′, 14′-diazaspiro[morpholine-3,17′-tetracyclo[18.3.1.0^2,70.0^14,18]tetracosane]-1′(24′),2′(7′),3′,5′,20′,22′-hexaene-5,13′-dione]",> 10 µM
9,"O=C1COCC2(CCCN3C(=O)CCOc4cccnc4[C@H]4CC[C@H](CC4)OCC32)N1 (mixture of isomers) [Example 51, Rel-(1′s,3S,17′R,20′s)-8′,19′-dioxa-3′,12′-diazaspiro [morpholine-3,16′-tetracyclo[18.2.2. 0^2,^7.0^12,^17]tetracosane]-2′(7′),3′,5′-triene-5,11′-dione]",> 10 µM
10,"O=C1COCC2(CCCN3C(=O)OCCc4ccccc4[C@H]4CC[C@H](CC4)OCC32)N1 (mixture of isomers) [Example 52, Rel-(1′s,3S,17′R,20's)-10′,19′-dioxa-12′-azaspiro[morpholine-3,16′-tetracyclo [18.2.2.0^2,70.0^12,17]tetracosane]-2′(7′), 3′,5′-triene-5,11′-dione]",1 to 10 µM
11,"O=C1COCC2(CCCN3C(=O)CCCOc4ccccc4-c4cccc(c4F)CC32)N1 (racemic) [Example 61, Rel-(3S,18′S)-24′-fluoro-8′-oxa-13′-azaspiro[morpholine-3,17′-tetracyclo[18.3.1.0^2,70.0^13,18]tetracosane]-1′(24′),2′(7′), 3′,5′,20′,22′-hexaene-5,12′-dione]",1 to 10 µM
12,"O=C1COCC2(CCCN3C(=O)CCCCc4ccccc4-c4cccc(c4F)CC32)N1 (racemic) [Example 62, Rel-(3S, 18′S)-24′-fluoro-13′-azaspiro[morpholine-3,17′-tetracyclo[18.3.1.0^2,70.0^13,18]tetracosane]-1′(24′),2′(7′),3′,5′,20′,22′-hexaene-5,12′-dione]",> 10 µM
13,"CN1CCOc2ccccc2-c2cccc(c2F)CC2N(CCCC23COCC(=O)N3)C1=O (racemic) [Example 63, Rel-(3S,18′S)-24′-fluoro-11′-methyl-8′-oxa-11′,13′-diazaspiro[morpholine-3,17′-tetracyclo[18.3.1.0^2,70.0^13,18]tetracosane]-1′(24′),2′(7′),3′,5′,20′,22′-hexaene-5,12′-dione]",1 to 10 µM

# Results, then the compound that gave them:
row,EC50,SMILES
1,< 0.1 µM,"O=C1COCC2(CCN3C(=O)CCOc4ccccc4[C@H]4CC[C@H](CC4)OCC32)N1 (mixture of isomers) [Example 1, rel-(1's,3S,16′R,19′s)-8′,18′-dioxa-12′-azaspiro[morpholine-3,15′-tetracyclo[17.2.2.0^2,70.0^12,16]tricosane]-2′(7′),3′,5′-triene-5,11′-dione]"
2,< 0.1 µM,"O=C1COCC2(CCN3C(=O)CCOc4cccc(F)c4[C@H]4CC[C@H](CC4)OCC32)N1 (mixture of isomers) [Example 10, Rel-(1′s,3S,16′R,19′s)-3′-fluoro-8′,18′-dioxa-12′-azaspiro[morpholine-3,15′-tetracyclo[17.2.2.0^2,70.0^12,16]tricosane]-2′(7′),3′,5′-triene-5,11′-dione]"
3,0.1 to 1 µM,"O=C1COCC2(CCN3C(=O)CCOc4c(F)cc(F)cc4[C@H]4CC[C@H](CC4)OCC32)N1 (mixture of isomers) [Example 11, Rel-(1′s,3S,16′R,19′s)-4′,6′-difluoro-8′,18′-dioxa-12′-azaspiro[morpholine-3,15′-tetracyclo[17.2.2.0^2,70.0^12,16]tricosane]-2′(7′),3′,5′-triene-5,11′-dione]"
4,< 0.1 µM,"C[C@@H]1CC2(COCC(=O)N2)C2CO[C@H]3CC[C@H](CC3)c3ccccc3OCCCC(=O)N21 (mixture of isomers) [Example 14, (1′s,14′R,20's)-14′-methyl-8′,19′-dioxa-13′-azaspiro[morpholine-3,16′-tetracyclo[18.2.2.0^2,70.0^13,17]tetracosane]-2′(7′),3′,5′-triene-5,12′-dione]"
5,< 0.1 µM,"O=C1COCC2(CCCN3C(=O)CCOc4ccc(F)cc4[C@H]4CC[C@H](CC4)OCC32)N1 (mixture of isomers) [Example 49, Rel-(1′s,3S,17′R,20′s)-4′-fluoro-8′,19′-dioxa-12′-azaspiro[morpholine-3,16′-tetracyclo[18.2.2. 0^2,^7.0^12,^17]tetracosane]-2′(7′),3′,5′-triene-5,11′-dione]"
6,< 0.1 µM,"O=C1COCC2(CCCN3C(=O)OCCOc4cccc(c4)[C@H]4CC[C@H](CC4)OCC32)N1 (mixture of isomers) [Example 53, Rel-(1′s,3S,17′R,20's)-7′,10′,19′-trioxa-12′-azaspiro[morpholine-3,16′-tetracyclo[18.2.2.1^2,60.0^12,17]pentacosane]-2′(25′),3′,5′-triene-5,11′-dione]"
7,< 0.1 µM,"O=C1COCC2(CCCN3C(=O)OCCCOc4cccc(c4)[C@H]4CC[C@H](CC4)OCC32)N1 (mixture of isomers) [Example 54, Rel-(1′s,3S,18′R,21′s)-7′,11′,20′-trioxa-13′-azaspiro[morpholine-3,17′-tetracyclo[19.2.2.1^2,60.0^13,18]hexacosane]-2′(26′),3′,5′-triene-5,12′-dione]"
8,< 0.1 µM,"O=C1NC2(CCCN3C(=O)COc4ccccc4[C@H]4CC[C@H](CC4)OCC32)CCO1 (mixture of isomers) [Example 57, Rel-(1′s,4R,16′R,19′s)-8′,18′-dioxa-11′-azaspiro[1,3-oxazinane-4,15′-tetracyclo[17.2.2.0^2,70.0^11,16]tricosane]-2′(7′),3′,5′-triene-2,10′-dione]"
9,< 0.1 µM,"O=C1CCCC2(CCCN3C(=O)COc4ccccc4[C@H]4CC[C@H](CC4)OCC32)N1 (mixture of isomers) [Example 58, Rel-(1′s,2S,16′R,19′s)-8′,18′-dioxa-11′-azaspiro[piperidine-2,15′-tetracyclo-[17.2.2.0^2,70.0^11,16]tricosane]-2′(7′),3′,5′-triene-6,10′-dione]"
10,< 0.1 µM,"O=C1COc2ccccc2[C@H]2CC[C@H](CC2)OCC2N1CCCC21CCCS(=O)(=O)N1 (mixture of isomers) [Example 59, Rel-(1s, 15R,16R,19s)-8,18-dioxa-11-azaspiro[tetracyclo[17.2.2.0^2,70.0^11,16]tricosane-15,3′-[1λ^6,2]thiazinane]-2 (7),3,5-triene-1′,1′,10-trione]"
